Measured values published in PubChem BioAssay AID2060601 (Molecular Pharmacology Branch, DTP, NCI, 2025).
Values joined by “and” are separate entries in the source; they are usually repeats but may differ in a detail not shown here. Equal values may be shown once.

Test system: 874868-142-R-J2-PDC complex spheroids, growth % test/control
Test: Anticancer human tumor 874868-142-R-J2-PDC patient-derived head and neck squamous carcinoma cell line growth inhibition [CLK]
Conditions: for viability, T/C: stronger effect = lower value
How it was run: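 Multi-cell-type spheroids combined patient-derived tumor cells with HUVEC endothelial cells and human mesenchymal stem cells. Paired agents were dosed in half-log steps down from about clinical Cmax, or from 10 microM where Cmax was unknown.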

[1] = curve of first compound, second compound 0.0316 µM
[2] = curve of first compound, second compound 0.1 µM
[3] = curve of first compound, second compound 0.316 µM
[4] = curve of first compound, second compound 1 µM
[5] = curve of first compound, second compound 3.16 µM
[6] = curve of first compound, second compound 10 µM
[7] = second compound 0.0316 µM, first compound 0.0316 µM
[8] = second compound 0.0316 µM, first compound 0.1 µM
[9] = second compound 0.0316 µM, first compound 0.316 µM
[10] = second compound 0.0316 µM, first compound 1 µM
[11] = second compound 0.0316 µM, first compound 3.16 µM
[12] = second compound 0.0316 µM, first compound 10 µM
[13] = second compound 0.1 µM, first compound 0.0316 µM
[14] = second compound 0.1 µM, first compound 0.1 µM
[15] = second compound 0.1 µM, first compound 0.316 µM
[16] = second compound 0.1 µM, first compound 1 µM
[17] = second compound 0.1 µM, first compound 3.16 µM
[18] = second compound 0.1 µM, first compound 10 µM
[19] = second compound 0.316 µM, first compound 0.0316 µM
[20] = second compound 0.316 µM, first compound 0.1 µM
[21] = second compound 0.316 µM, first compound 0.316 µM
[22] = second compound 0.316 µM, first compound 1 µM
[23] = second compound 0.316 µM, first compound 3.16 µM
[24] = second compound 0.316 µM, first compound 10 µM
[25] = second compound 1 µM, first compound 0.0316 µM
[26] = second compound 1 µM, first compound 0.1 µM
[27] = second compound 1 µM, first compound 0.316 µM
[28] = second compound 1 µM, first compound 1 µM
[29] = second compound 1 µM, first compound 3.16 µM
[30] = second compound 1 µM, first compound 10 µM
[31] = second compound 3.16 µM, first compound 0.0316 µM
[32] = second compound 3.16 µM, first compound 0.1 µM
[33] = second compound 3.16 µM, first compound 0.316 µM
[34] = second compound 3.16 µM, first compound 1 µM
[35] = second compound 3.16 µM, first compound 3.16 µM
[36] = second compound 3.16 µM, first compound 10 µM
[37] = second compound 10 µM, first compound 0.0316 µM
[38] = second compound 10 µM, first compound 0.1 µM
[39] = second compound 10 µM, first compound 0.316 µM
[40] = second compound 10 µM, first compound 1 µM
[41] = second compound 10 µM, first compound 3.16 µM
[42] = second compound 10 µM, first compound 10 µM
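Also: spheroids exposed to the compounds for 7 days.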
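For viability, T/C in this document: 100% = DMSO vehicle control viability.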

In the case of `C=C(F)C(=O)N1CCN(c2nc(OCC3CCCN3C)nc3c2CCN(c2cccc4cccc(Cl)c24)C3)CC1CC#N` (centres undefined) + CNC(=O)c1ccc(Nc2nc(OC3CCCC3)c3c(-c4ccc5nc(C)oc5c4)c[nH]c3n2)c(OC)c1, the IC50 [1] is reported as 3460 nM, the IC50 [2] is reported as 3370 nM and the IC50 [3] is reported as under 31.6 nM. The IC50 [4] was under 31.6 nM, the IC50 [5] was under 31.6 nM and the IC50 [6] was under 31.6 nM. For the same molecule, the viability, T/C [7] was 91.7%, the viability, T/C [8] was 70.4% and the viability, T/C [9] was 89.3%. It also gave a viability, T/C [10] of 68.4%, a viability, T/C [11] of 56.8% and a viability, T/C [12] of 0.28%. The viability, T/C [13] was 71.2%, the viability, T/C [14] was 68.8% and the viability, T/C [15] was 65.9%. For the same molecule, the viability, T/C [16] was 61.6%, the viability, T/C [17] was 54.6% and the viability, T/C [18] was 0.63%. It also gave a viability, T/C [19] of 50.5%, a viability, T/C [20] of 49.2% and a viability, T/C [21] of 47.6%. For the same molecule, the viability, T/C [22] was 43.8%, the viability, T/C [23] was 38.5% and the viability, T/C [24] was 1.18%. For the same molecule, the viability, T/C [25] was 44.4%, the viability, T/C [26] was 33% and the viability, T/C [27] was 36.7%. For the same molecule, the viability, T/C [28] was 38.5%, the viability, T/C [29] was 35.2% and the viability, T/C [30] was 0.25%. The viability, T/C [31] was 37.5%, the viability, T/C [32] was 41.8% and the viability, T/C [33] was 31%. The viability, T/C [34] was 38%, the viability, T/C [35] was 32.2% and the viability, T/C [36] was 7.83%. The viability, T/C [37] was 36.1%, the viability, T/C [38] was 35.1% and the viability, T/C [39] was 38.1%. The viability, T/C [40] was 39.1%, the viability, T/C [41] was 31.1% and the viability, T/C [42] was 3.95%.
With `O=c1[nH]cc(F)c(=O)[nH]1` the viability, T/C (compound 0.0316 µM) was 96.6% and 97.4%, the viability, T/C (compound 0.1 µM) was 99.9% and 74.5% and the viability, T/C (compound 0.316 µM) was 85.2% and 65.8%. For the same molecule, the viability, T/C (compound 1 µM) was 65.2% and 55.6%, the viability, T/C (compound 3.16 µM) was 38.4% and 53.1% and the viability, T/C (compound 10 µM) was 37% and 45.6%. The IC50 (curve of compound) was 1990 nM and 4140 nM.
For `CN1CCN(c2cc(C(=O)Nc3cc4cc(-c5cnn(C)c5)ccc4cn3)ccn2)CC1`, the viability, T/C (compound 0.0316 µM) was 92.8% [middle of 12 runs], the viability, T/C (compound 0.1 µM) was 75.6% [middle of 12 runs] and the viability, T/C (compound 0.316 µM) was 19.5% [middle of 12 runs]. For the same molecule, the viability, T/C (compound 1 µM) was 2.43% [middle of 12 runs], the viability, T/C (compound 3.16 µM) was 0.92% [middle of 10 runs] and the viability, T/C (compound 10 µM) was 0.22% [middle of 9 runs]. For the same molecule, the IC50 (compound alone, run of 09/18/2023) was 168 nM [middle of 10 runs].
In the case of `NC(=O)C(=Cn1cnc(-c2cc(C(F)(F)F)cc(C(F)(F)F)c2)n1)c1cncnc1` + CNC(=O)c1ccc(Nc2nc(OC3CCCC3)c3c(-c4ccc5nc(C)oc5c4)c[nH]c3n2)c(OC)c1, the IC50 [1] is reported as 31.3 nM, the IC50 [2] is reported as 21.3 nM and the IC50 [3] is reported as under 9.49 nM. It also gave an IC50 [4] of under 9.49 nM, an IC50 [5] of under 9.49 nM and an IC50 [6] of under 9.49 nM. It also gave a viability, T/C (second compound 0.0316 µM, first compound 0.00949 µM) of 70.8%, a viability, T/C (second compound 0.0316 µM, first compound 0.03 µM) of 49.3% and a viability, T/C (second compound 0.0316 µM, first compound 0.0949 µM) of 28.2%. It also gave a viability, T/C (second compound 0.0316 µM, first compound 0.3 µM) of 6.41%, a viability, T/C (second compound 0.0316 µM, first compound 0.949 µM) of 4.32% and a viability, T/C (second compound 0.0316 µM, first compound 3 µM) of 4.58%. It also gave a viability, T/C (second compound 0.1 µM, first compound 0.00949 µM) of 66.4%, a viability, T/C (second compound 0.1 µM, first compound 0.03 µM) of 40.8% and a viability, T/C (second compound 0.1 µM, first compound 0.0949 µM) of 27.1%. For the same molecule, the viability, T/C (second compound 0.1 µM, first compound 0.3 µM) was 4.57%, the viability, T/C (second compound 0.1 µM, first compound 0.949 µM) was 3.53% and the viability, T/C (second compound 0.1 µM, first compound 3 µM) was 3.49%. For the same molecule, the viability, T/C (second compound 0.316 µM, first compound 0.00949 µM) was 45.8%, the viability, T/C (second compound 0.316 µM, first compound 0.03 µM) was 33.4% and the viability, T/C (second compound 0.316 µM, first compound 0.0949 µM) was 17.1%. The viability, T/C (second compound 0.316 µM, first compound 0.3 µM) was 2.51%, the viability, T/C (second compound 0.316 µM, first compound 0.949 µM) was 4.77% and the viability, T/C (second compound 0.316 µM, first compound 3 µM) was 2.89%. The viability, T/C (second compound 1 µM, first compound 0.00949 µM) was 34%, the viability, T/C (second compound 1 µM, first compound 0.03 µM) was 19.8% and the viability, T/C (second compound 1 µM, first compound 0.0949 µM) was 14.9%. The viability, T/C (second compound 1 µM, first compound 0.3 µM) was 2.12%, the viability, T/C (second compound 1 µM, first compound 0.949 µM) was 1% and the viability, T/C (second compound 1 µM, first compound 3 µM) was 4.53%. It also gave a viability, T/C (second compound 3.16 µM, first compound 0.00949 µM) of 35.6%, a viability, T/C (second compound 3.16 µM, first compound 0.03 µM) of 19.2% and a viability, T/C (second compound 3.16 µM, first compound 0.0949 µM) of 12.4%. It also gave a viability, T/C (second compound 3.16 µM, first compound 0.3 µM) of 1.32%, a viability, T/C (second compound 3.16 µM, first compound 0.949 µM) of 6.47% and a viability, T/C (second compound 3.16 µM, first compound 3 µM) of 0.18%. For the same molecule, the viability, T/C (second compound 10 µM, first compound 0.00949 µM) was 36%, the viability, T/C (second compound 10 µM, first compound 0.03 µM) was 18.8% and the viability, T/C (second compound 10 µM, first compound 0.0949 µM) was 3.67%. For the same molecule, the viability, T/C (second compound 10 µM, first compound 0.3 µM) was 1.02%, the viability, T/C (second compound 10 µM, first compound 0.949 µM) was 3.87% and the viability, T/C (second compound 10 µM, first compound 3 µM) was 4.53%.
For `Nc1ccn(C2OC(CO)C(O)C2(F)F)c(=O)n1` (centres undefined), the viability, T/C (compound 0.0316 µM) was 81.2% and 81.7%, the viability, T/C (compound 0.1 µM) was 78.9% and 76.2% and the viability, T/C (compound 0.316 µM) was 49.2% and 54.9%. For the same molecule, the viability, T/C (compound 1 µM) was 31.5% and 44.2%, the viability, T/C (compound 3.16 µM) was 25.7% and 40.5% and the viability, T/C (compound 10 µM) was 30.1% and 32.9%. For the same molecule, the IC50 (curve of compound) was 311 nM and 572 nM.
For `CC(=O)O[C@H]1C(=O)[C@@]2(C)[C@H]([C@H](OC(=O)c3ccccc3)[C@]3(O)C[C@H](OC(=O)[C@H](O)[C@@H](NC(=O)c4ccccc4)c4ccccc4)C(C)=C1C3(C)C)[C@]1(OC(C)=O)CO[C@@H]1C[C@@H]2O` + CNC(=O)c1ccc(Nc2nc(OC3CCCC3)c3c(-c4ccc5nc(C)oc5c4)c[nH]c3n2)c(OC)c1, the IC50 [1] was under 31.6 nM, the IC50 [2] was under 31.6 nM and the IC50 [3] was over 10000 nM. It also gave an IC50 [4] of under 31.6 nM, an IC50 [5] of under 31.6 nM and an IC50 [6] of under 31.6 nM. For the same molecule, the viability, T/C [7] was 47.4%, the viability, T/C [8] was 33.5% and the viability, T/C [9] was 39.4%. It also gave a viability, T/C [10] of 41.9%, a viability, T/C [11] of 48.9% and a viability, T/C [12] of 66.2%. For the same molecule, the viability, T/C [13] was 53.9%, the viability, T/C [14] was 43.9% and the viability, T/C [15] was 50%. The viability, T/C [16] was 55.7%, the viability, T/C [17] was 62.7% and the viability, T/C [18] was 66.5%. It also gave a viability, T/C [19] of 54.3%, a viability, T/C [20] of 65.1% and a viability, T/C [21] of 72.6%. For the same molecule, the viability, T/C [22] was 66.5%, the viability, T/C [23] was 77.6% and the viability, T/C [24] was 70.1%. It also gave a viability, T/C [25] of 47.1%, a viability, T/C [26] of 49.9% and a viability, T/C [27] of 53%. For the same molecule, the viability, T/C [28] was 62.3%, the viability, T/C [29] was 52.6% and the viability, T/C [30] was 61.9%. For the same molecule, the viability, T/C [31] was 47.8%, the viability, T/C [32] was 45.7% and the viability, T/C [33] was 52.4%. For the same molecule, the viability, T/C [34] was 51%, the viability, T/C [35] was 57.5% and the viability, T/C [36] was 64.3%. The viability, T/C [37] was 43.7%, the viability, T/C [38] was 53% and the viability, T/C [39] was 58.3%. The viability, T/C [40] was 52.4%, the viability, T/C [41] was 57.6% and the viability, T/C [42] was 50.5%.
`Nc1ccccc1NC(=O)c1ccc(CNC(=O)OCc2cccnc2)cc1` was tested, and the viability, T/C (compound 0.0316 µM) was 97% and 102%, the viability, T/C (compound 0.1 µM) was 95.4% and 87.3% and the viability, T/C (compound 0.316 µM) was 90% and 113%. For the same molecule, the viability, T/C (compound 1 µM) was 110% and 124%, the viability, T/C (compound 3.16 µM) was 95.8% and 101% and the viability, T/C (compound 10 µM) was 36.9% and 26.4%. For the same molecule, the IC50 (curve of compound) was 7730 nM and 6990 nM.
